According to the NIST ThermoML archive (doi:10.1016/j.fluid.2012.01.014):

Assay: cn = amount concentration of the nth substance listed, in mol/dm3
Conditions: Ring tensiometer

CCCCCCCCCCCCCCCC[n+]1ccccc1.[Br-] [1-hexadecylpyridinium bromide] + O
surface tension liquid-gas [mN/m]
Conditions	293 K	303 K	313 K
c1 = 1e-08	72.8	71.2	69.6
c1 = 5.01e-08	72.8	71.19	69.59
c1 = 1e-07	72.75	71.18	69.57
c1 = 5.01e-07	72.7	71.13	69.54
c1 = 1e-06	72.6	71.07	69.49
c1 = 5.01e-06	71.7	70.56	69.04
c1 = 1e-05	71.1	69.97	68.52
c1 = 2e-05	69.8	68.91	67.58
c1 = 5.01e-05	67.4	66.38	65.26
c1 = 0.0001	63	61.8	60.65
c1 = 0.0002	54.6	53.41	53.01
c1 = 0.000398	45.5	44.73	44.56
c1 = 0.000631	44.8	44.03	43.87
c1 = 0.000794	45.3	44.04	43.86
c1 = 0.001	44.4	43.92	43.75
c1 = 0.002	44	43.81	43.68
c1 = 0.00398	44.5	43.79	43.64
c1 = 0.00603	44.1	43.62	43.53
c1 = 0.00794	43.2	42.83	42.74
c1 = 0.01	43.2	42.75	42.65
c1 = 0.0302	39.4	38.89	38.9
c1 = 0.0603	38.8	38.02	37.95

CCCCCCCCCCCCCCCC[N+](C)(C)C.[Br-] [N,N,N-trimethyl-1-hexadecanaminium bromide] + O
surface tension liquid-gas [mN/m]
Conditions	293 K	303 K	313 K
c1 = 1e-08	72.79	71.2	69.6
c1 = 1e-07	72.78	71.19	69.59
c1 = 5.01e-07	72.73	71.16	69.56
c1 = 1e-06	72.66	71.11	69.52
c1 = 2e-06	72.54	71.03	69.45
c1 = 3.98e-06	72.31	70.86	69.3
c1 = 6.31e-06	72.1	70.69	69.16
c1 = 7.94e-06	71.91	70.53	69.02
c1 = 1e-05	71.73	70.37	68.88
c1 = 2e-05	70.97	69.62	68.22
c1 = 3.02e-05	70.31	68.93	67.61
c1 = 3.98e-05	69.72	68.3	67.04
c1 = 5.01e-05	69.2	67.72	66.51
c1 = 6.03e-05	68.81	67.18	66.01
c1 = 7.08e-05	68.48	66.67	65.54
c1 = 7.94e-05	68.06	66.2	65.1
c1 = 9.12e-05	67.15	65.75	64.68
c1 = 0.0001	66.41	65.32	64.28
c1 = 0.0002	60.86	60.52	59.45
c1 = 0.000302	54.74	54.35	53.95
c1 = 0.000398	50.39	50.02	49.72
c1 = 0.000501	47.02	46.83	46.15
c1 = 0.000603	44.27	44.12	43.53
c1 = 0.000708	41.94	41.82	41.22
c1 = 0.000794	39.92	39.75	39
c1 = 0.000891	38.15	38.01	37.25
c1 = 0.000912	37.9	37.8	37
c1 = 0.001	37.9	37.2	36.4
c1 = 0.002	37.8	37.14	36.4

CCCCCCCCCCCC[N+](C)(C)Cc1ccccc1.[Br-] [benzenemethanaminium, N-dodecyl-N,N-dimethyl, bromide] + O
surface tension liquid-gas [mN/m]
Conditions	293 K	303 K	313 K
c1 = 1e-07	72.4	71.18	69.58
c1 = 5.01e-07	72.3	71.09	69.49
c1 = 1e-06	71.6	70.98	69.38
c1 = 5.01e-06	70.7	70.22	68.59
c1 = 1e-05	69.6	69.44	67.78
c1 = 5.01e-05	66.8	65.88	64.1
c1 = 0.0001	64.3	63.66	61.81
c1 = 0.000316	55.3	54.19	53.4
c1 = 0.000501	51.7	50.07	49.15
c1 = 0.001	46.2	44.48	43.37
c1 = 0.002	41.1	40	38.93
c1 = 0.00316	37.8	36.73	35.76
c1 = 0.00398	36	34.82	33.92
c1 = 0.00501	34.5	33.11	32.67
c1 = 0.00708	34.5	33.11	32.67
c1 = 0.01	34.4	33.11	32.67

CCCCCCCCCCCC[N+](C)(C)CC.[Br-] [dodecyl ethyl dimethylammonium bromide] + O
surface tension liquid-gas [mN/m]
Conditions	293 K	303 K	313 K
c1 = 1e-07	72.6	71.2	69.6
c1 = 5.01e-07	72.4	71.19	69.6
c1 = 1e-06	72.3	71.19	69.59
c1 = 5.01e-06	72.2	71.13	69.56
c1 = 1e-05	71.7	71.06	69.53
c1 = 5.01e-05	70.7	70.54	69.24
c1 = 0.0001	70	69.94	68.89
c1 = 0.000501	67.8	66.59	65.63
c1 = 0.001	65.1	63.91	62.94
c1 = 0.002	60.3	60.54	59.58
c1 = 0.00316	56.4	56.13	55.17
c1 = 0.00398	52.4	52.36	51.87
c1 = 0.00501	50	49.44	48.85
c1 = 0.00631	47.3	46.78	46.39
c1 = 0.00794	44.3	43.72	43.12
c1 = 0.00891	42.8	42.12	41.71
c1 = 0.01	41.5	40.73	39.82
c1 = 0.0251	40.9	40.01	39.43
c1 = 0.0501	40.6	39.82	38.75
c1 = 0.1	39.4	39	38.24

CCCCCCCCCCCCOS(=O)(=O)[O-].[Na+] [sodium dodecyl sulfate] + O
surface tension liquid-gas [mN/m]
Conditions	293 K	303 K	313 K
c1 = 1e-08	72.8	71.2	69.6
c1 = 1e-07	72.9	71.19	69.6
c1 = 1e-06	72.79	71.17	69.58
c1 = 3.98e-06	72.78	71.15	69.56
c1 = 7.94e-06	72.76	71.14	69.53
c1 = 1e-05	72.75	71	69.51
c1 = 5.01e-05	72.69	70.81	69.48
c1 = 6.31e-05	72.46	70.59	69.27
c1 = 0.0001	72.24	70.01	69.05
c1 = 0.0002	71.62	69.29	67.85
c1 = 0.000631	68.1	66.62	65.14
c1 = 0.000794	66.25	65.21	64.01
c1 = 0.001	64.32	63.87	62.73
c1 = 0.002	57.43	57.02	55.94
c1 = 0.00398	49.72	49.52	48.45
c1 = 0.00631	43.37	42.98	41.7
c1 = 0.00794	38.88	38.34	36.91
c1 = 0.00832	38.4	38.21	36.42
c1 = 0.01	38.4	38.21	36.42

CCCCCCCCCCCCCCCCS(=O)(=O)[O-].[Na+] [sodium hexadecylsulfonate] + O
surface tension liquid-gas [mN/m]
Conditions	293 K	303 K	313 K
c1 = 1e-08	72.8	71.2	69.6
c1 = 1e-07	72.8	71.19	69.6
c1 = 1e-06	72.7	71.15	69.55
c1 = 3.98e-06	72.6	70.99	69.42
c1 = 5.01e-06	72.5	70.89	69.31
c1 = 6.03e-06	72.4	70.77	69.21
c1 = 7.94e-06	72.3	70.69	69.09
c1 = 1e-05	72.2	70.54	68.99
c1 = 2e-05	71.6	69.98	68.41
c1 = 6.03e-05	69	68.49	67.04
c1 = 0.0001	66.2	65.54	64.15
c1 = 0.0002	59.15	58.94	58.84
c1 = 0.000603	43.23	43.17	43.12
c1 = 0.000741	40.28	40.07	39.97
c1 = 0.000891	–	38.59	38.55
